Reference: patent US10538561B2, “Peptide for treating inflammatory diseases” (priority 2015, dated 2020)
Where a name gives a salt, the structure may show the parent alone. Read-outs that look alike come from different tables or passages of the source. Marks after values point to notes of the source that are not given here.

Legend:
VEGF = VEGF inhibition in keratinocytes (ELISA); type: cell-based, Human; conditions: HaCaT, 24 h
Method: Cell lines: Human Keratinocytes (HaCaT); test item: IS181; treatment regimen: single addition—24 hours; concentration range: 0.1 μg/ml-100 μg/ml. […] Cells were serum-starved for another 24 hours (0% FBS). Cells were treated with IS181 for 24 hours. Supernatants were collected and stored at −20° C. till analysed. Levels of VEGF were analysed in supernatants by ELISA. Percent inhibition of VEGF secretion was calculated with reference to untreated levels. Positive control: curcumin; retinoic acid (at non-cytotoxic concentrations).

[1] = system: Human Keratinocytes (HaCaT); assay: Cell viability (MTT assay) in HaCaT; type: cell-based; conditions: human
Method: (§1) Cell Lines/Cells: Human Keratinocytes (HaCaT); Human melanoma (SK-MEL-28); Human PBMCs. Test Item: IS181 Treatment regimen: Single addition—24 h, ^#Multiple additions (3)−72 h; Concentration range: 1 ng/ml-2 mg/ml (triplicate wells); Sera Condition: […] Method of estimation: MTT assay. […] Positive control: Triton-X-100, Doxorubicin Hydrochloride.

[2] = system: Human melanoma (SK-MEL-28); assay: Cell viability (MTT assay) in SK-MEL-28; type: cell-based; conditions: human
Method: as §1

[3] = system: HaCaT (Human keratinocyte) cell line; assay: Mitochondrial membrane potential by JC-1 assay; type: cell-based
Method: (§2) For testing Apoptosis the Human Keratinocytes (HaCaT) cell line has been employed. The growth conditions are DMEM containing 1% FBS. […] Test concentration range is IS181 is tested at the highest (Qualitative analysis) effective concentrations selected on the basis of Quantitative JC-1 assay. The method of estimation is Mitochondrial membrane depolarization by JC-1 assay (Early apoptosis), LDH enzyme release (Necrosis). Treatment regimen & time points are JC-1 assay—Single addition, 20 h; LDH assay—Single addition, 24 h; Positive control: Triton-X-100, Doxorubicin-hydrochloride
Quantitative effect on Δψm (Red fluorescence/Green fluorescence) in HaCaT cells post 20 hours of treatment. […] Evaluation (Qualitative and quantitative) of differential JC-1 staining in treated cells after 20 h on incubation with the test peptides.

[4] = system: HaCaT (Human keratinocyte); assay: LDH enzyme release assay; type: cell-based
Method: as §2
End-point: Percentage increase in LDH activity in treated cells with respect to untreated.

TNF-α [5] = assay: LPS stimulated TNF-α secretion in RAW264.7; type: cell-based, Mouse; conditions: RAW264.7 + LPS
Method: (§3) Effect on pro-inflammatory cytokines against LPS stimulation: TNF-α; IL-6; IL-1-β: Cell lines: Murine macrophage cell line (RAW264.7); test item: IS181; experimental steps: pretreatment of cells with TI for 2 hours; stimulation with LPS (100 ng/ml) for 24 hours; supernatant collection for cytokine analysis; concentration range: o.1 μg/ml-500 μg/ml (duplicate wells); Cytokines: TNF-α; IL-6; IL-1-β; Method of estimating cytokines: ELISA; positive control: dexamethasone.
(§4) Cell line: RAW264.7 (Mouse macrophages); TI treatment regimen: Pretreatment for 2 h; TI Concentration range: 0.1 μg/ml-500 μg/ml (duplicate wells); LPS stimulation: 100 ng/ml; Time point for supernatants collection: 24 h; Method of estimation: ELISA; Positive control: Dexamethasone

IL-6 [6] = assay: LPS stimulated IL-6 secretion in RAW264.7; type: cell-based, Mouse; conditions: RAW264.7 + LPS
Method: as §3, §4

IL-1-β = assay: LPS stimulated IL-1-β secretion in RAW264.7; type: cell-based, Mouse; conditions: RAW264.7 + LPS
Method: as §3, §4

TNF-α [7] = assay: TNF-α level in TNF-α stimulated HaCaT; type: cell-based, Human
Method: (§5) Effect on pro-inflammatory cytokines against TNF-α/LPS+PMA stimulation: TNF-α; IFN-γ; TARC; TSLP; IL-6; IL-8: Cell lines: Human keratinocytes (HaCaT); test item (TI); IS181; experimental steps: pre-treatment of cells with TI for 2 hours; stimulation with TNF-α: 20 ng/ml; stimulation with LPS+PMA-10 μg/ml LPS+40 ng/ml PMA; supernatant collection for cytokine analysis after 24 hours; concentration range: 0.1 μg/ml-100 μg/ml (duplicate wells); cytokines: TNF-α; IFN-γ; TARC; TSLP; IL-6; IL-8. Method of estimating cytokines: ELISA; positive control: dexamethasone.
(§6) Cell line: HaCaT (Human Keratinocytes); TI Treatment regimen: Pretreatment for 2 h; TI Concentration range: 0.1 μg/ml-100 μg/ml (duplicate wells); TNF-α stimulation: 20 ng/ml; LPS+PMA stimulation: 10 μg/ml LPS+40 ng/ml PMA; Time point for supernatants collection: 24 h; Method of estimation: ELISA; Positive control: Dexamethasone

IFN-γ = assay: TNF-α stimulated IFN-γ secretion in HaCaT; type: cell-based, Human; conditions: HaCaT + TNF-α
Method: as §5, §6

TARC = assay: TNF-α stimulated TARC secretion in HaCaT; type: cell-based, Human; conditions: HaCaT + TNF-α
Method: as §5, §6

IL-6 [8] = assay: LPS+PMA stimulated IL-6 secretion in HaCaT; type: cell-based, Human
Method: as §5, §6

IL-8 = assay: LPS+PMA stimulated IL-8 secretion in HaCaT; type: cell-based, Human; conditions: HaCaT + LPS + PMA
Method: as §5, §6

TSLP = assay: LPS+PMA stimulated TSLP secretion in HaCaT; type: cell-based, Human; conditions: HaCaT + LPS + PMA
Method: as §5, §6

in vitro = conditions: human, HaCaT keratinocytes
Method: (§7) The cells were then incubated for 72 hours. Percentage cytotoxicity was determined using MTT assay.

[9] = system: Human Keratinocytes (HaCaT); assay: In vitro combination methotrexate and IS181 (MTT); conditions: for 50% Inhibition (concentration of MTX): 72 h
Method: as §7

## CC1=C(/C=C/C(C)=C/C=C/C(C)=C/C(=O)O)C(C)(C)CCC1 [RA, retinoic acid, reference compound]
VEGF; RA 1 μM
  Conc. of VEGF (pg/ml): 2775.1* pg/ml
VEGF; RA 10 μM
  Conc. of VEGF: 2982.4 pg/mL
VEGF; Homo sapiens, RA 1 μM, read-out: % Inhibition of VEGF wrt untreated (basal) levels
  inhibition at 1 µM: 22.8%
VEGF; Homo sapiens, RA 10 μM, read-out: % Inhibition of VEGF wrt untreated (basal) levels
  inhibition at 10 µM: 17%

## COc1cccc2c1C(=O)c1c(O)c3c(c(O)c1C2=O)C[C@@](O)(C(=O)CO)C[C@@H]3O[C@H]1C[C@H](N)[C@H](O)[C@H](C)O1 [Doxorubicin, Doxorubicin Hydrochloride, reference compound]
[1]; 24 h
  cytotoxicity: up to 48%
[1]; 72 h
  cytotoxicity: > 88%
[2]
  cytotoxicity: up to 40%
[3]; 0.1 μM
  Green fluorescence intensity (RFU): 11.5 ± 0.71 RFU
  Red fluorescence intensity (RFU): ^#106.17 ± 15.32 ^ RFU
  Red fluorescence intensity/Green fluorescence intensity: 9.23
[3]; 1 μM
  Green fluorescence intensity (RFU): 11.5 ± 0.71 RFU
  Red fluorescence intensity (RFU): 93.25 ± 22.98 RFU
  Red fluorescence intensity/Green fluorescence intensity: 8.11
[3]; 10 μM
  Green fluorescence intensity (RFU): 9.83 ± 4.48 RFU
  Red fluorescence intensity (RFU): 49.83 ± 1.65 RFU
  Red fluorescence intensity/Green fluorescence intensity: 5.07
[4]; 0.1 μM
  % Increase with respect to untreated (LDH): −4.78%
  LDH Activity (mU/ml): 60.23 mU/ml
[4]; 1 μM
  % Increase with respect to untreated (LDH): −16.43%
  LDH Activity (mU/ml): 52.87 mU/ml
[4]; 10 μM
  % Increase with respect to untreated (LDH): ***125.92%
  LDH Activity (mU/ml): 142.92 mU/ml

## C[C@@H]1C[C@H]2[C@@H]3CCC4=CC(=O)C=C[C@]4(C)[C@@]3(F)[C@@H](O)C[C@]2(C)[C@@]1(O)C(=O)CO [Dexamethasone, reference compound]
TNF-α [5]; 0.5 μg /ml
  TNF-α % decrease with respect to LPS: 54.1%
  TNF-α Conc (pg/ml): 451.7*** pg/ml
TNF-α [5]; 1 μg /ml
  TNF-α % decrease with respect to LPS: 70.4%
  TNF-α Conc (pg/ml): 291.8*** pg/ml
TNF-α [5]; 10 μg/ml
  TNF-α % decrease with respect to LPS: 71.2%
  TNF-α Conc (pg/ml): 283.1*** pg/ml
IL-6 [6]; 0.5 μg /ml
  IL-6 % decrease with respect to LPS: 45.9%
  IL-6 Conc (pg/ml): 567.6** pg/ml
IL-6 [6]; 1 μg /ml
  IL-6 % decrease with respect to LPS: 61.3%
  IL-6 Conc (pg/ml): 405.9*** pg/ml
IL-6 [6]; 10 μg/ml
  IL-6 % decrease with respect to LPS: 72.3%
  IL-6 Conc (pg/ml): 291.2*** pg/ml
IL-1-β; 0.5 μg /ml
  IL-1-β % decrease with respect to LPS: 53.6%
  IL-1-β Conc (pg/ml): 9.6* pg/ml
IL-1-β; 1 μg /ml
  IL-1-β % decrease with respect to LPS: 44.6%
  IL-1-β Conc (pg/ml): 11.4* pg/ml
IL-1-β; 10 μg/ml
  IL-1-β % decrease with respect to LPS: 39.0%
  IL-1-β Conc (pg/ml): 12.6* pg/ml
TNF-α [7]; 1 μM
  TNF-α % decrease with respect to TNF-α: 17.6%
  TNF-α Conc: 17423.9 pg/mL
TNF-α [7]; 10 μM
  TNF-α % decrease with respect to TNF-α: 31.2%
  TNF-α Conc: 14536.0 pg/mL
TNF-α [7]; 25 μM
  TNF-α % decrease with respect to TNF-α: 4.7%
  TNF-α Conc: 20138.0 pg/mL
IFN-γ; 1 μM
  IFN-γ % decrease with respect to TNF-α: 34.5%
  IFN-γ Conc (pg/ml): 31.2*** pg/ml
IFN-γ; 10 μM
  IFN-γ % decrease with respect to TNF-α: 25.4%
  IFN-γ Conc (pg/ml): 35.5** pg/ml
IFN-γ; 25 μM
  IFN-γ % decrease with respect to TNF-α: 31.2%
  IFN-γ Conc (pg/ml): 32.8** pg/ml
TARC; 1 μM
  TARC % decrease with respect to TNF-α: 13.2%
  TARC Conc: 52.5 pg/mL
TARC; 10 μM
  TARC % decrease with respect to TNF-α: 13.5%
  TARC Conc: 52.3 pg/mL
TARC; 25 μM
  TARC % decrease with respect to TNF-α: 13.5%
  TARC Conc: 52.3 pg/mL
IL-6 [8]; 1 μM
  IL-6 % decrease with respect to LPS + PMA: 100.0%
  IL-6 Conc (pg/ml): 0.0*** pg/ml
IL-6 [8]; 10 μM
  IL-6 % decrease with respect to LPS + PMA: 94.8%
  IL-6 Conc (pg/ml): 0.8*** pg/ml
IL-6 [8]; 25 μM
  IL-6 % decrease with respect to LPS + PMA: 84.2%
  IL-6 Conc (pg/ml): 2.4*** pg/ml
IL-8; 1 μM
  IL-8 % decrease with respect to LPS + PMA: 65.1%
  IL-8 Conc (pg/ml): 136.9*** pg/ml
IL-8; 10 μM
  IL-8 % decrease with respect to LPS + PMA: 72.6%
  IL-8 Conc (pg/ml): 107.4*** pg/ml
IL-8; 25 μM
  IL-8 % decrease with respect to LPS + PMA: 67.9%
  IL-8 Conc (pg/ml): 125.7*** pg/ml
TSLP; 1 μM
  TSLP % decrease with respect to LPS + PMA: 46.4%
  TSLP Conc (pg/ml): 66.6** pg/ml
TSLP; 10 μM
  TSLP % decrease with respect to LPS + PMA: 41.9%
  TSLP Conc (pg/ml): 72.1** pg/ml
TSLP; 25 μM
  TSLP % decrease with respect to LPS + PMA: 44.7%
  TSLP Conc (pg/ml): 68.7** pg/ml

## CN(Cc1cnc2nc(N)nc(N)c2n1)c1ccc(C(=O)N[C@@H](CCC(=O)O)C(=O)O)cc1 [MTX, methotrexate]
In vitro
  cytotoxicity at 72 h, 0.01 µM: 12.3%
  cytotoxicity at 72 h, 0.1 µM: 1.9%
  cytotoxicity at 72 h, 0.25 µM: 21.3%
  cytotoxicity at 72 h, 0.5 µM: 23.9%
  cytotoxicity at 72 h, 1 µM: 27.7%
  cytotoxicity at 72 h, 5 µM: 22%
[9]; with IS181 10 μg/ml
  50% Inhibition (concentration of MTX): 50% inhibition was still not achieved
[9]; with IS181 50 μg/ml
  50% Inhibition (concentration of MTX): 50% inhibition was still not achieved
[9]; read-out: 50% Inhibition (concentration of MTX), 72 h, MTX Alone
  IC50: > 5000 nM
[9]; read-out: 50% Inhibition (concentration of MTX), 72 h, with IS181 10 μg/ml
  IC50: > 5000 nM
[9]; read-out: 50% Inhibition (concentration of MTX), 72 h, with IS181 50 μg/ml
  IC50: > 5000 nM
[9]; read-out: 50% Inhibition (concentration of MTX), 72 h, with IS181 500 μg/ml
  IC50: 1000 to 5000 nM
[9]; read-out: 50% Inhibition (concentration of MTX), 72 h, with IS181 1000 μg/ml
  IC50: 10 nM
[9]; read-out: 50% Inhibition (concentration of MTX), 72 h, with IS181 2000 μg/ml
  IC50: < 10 nM
[9]; read-out: 50% Inhibition (concentration of MTX), 72 h, with IS181 5000 μg/ml
  IC50: < 10 nM
